Where two headings read alike, the source gives them in different places.
Assays:
P. berghei ANKA = type: in vivo, Swiss Webster mice; conditions: 2DG 200 mg/kg
Experimental: (§1) Groups of five female Swiss-Webster mice were injected intraperitoneally (i.p.) with 10^3 luciferase-expressing P. berghei ANKA parasites ([Franke-Fayard et al., 2008]). Forty-eight hours post infection, mice were injected i.p. daily for five days with either 200µL of 2% methylcellulose/0.5% Tween80, 40mg/kg chloroquine, 100mg/kg HEX, 30mg/kg POM-HEX, or 5mg/kg POM-SF. Enolase inhibitors dosing were selected as approximately 3-fold lower than the maximum acutely tolerated dose for each compound by i.p. injection. Day 7 post-infection, mice were injected with 150mg/kg D-luciferin potassium salt in PBS (GoldBio) and imaged on an IVIS 100 and parasite burden assessed (Xenogen LivingImage).
The glucose mimetic 2-DG and enolase inhibitors POM-HEX, and HEX were evaluated in the P. berghei mouse model of cerebral malarial, as previously described ([Wang et al., 2018]). Briefly, in addition to groups of mice (n = 5) dosed as described above for POM-HEX and HEX, 2-DG was administered to an additional group (n = 5) at 200mg/kg twice daily and all were monitored for survival, parasitemia (blood smear Giemsa), and clinical signs of cerebral malaria (paralysis, deviation of the head, ataxia, convulsions, and coma) over 15 days.

P. falciparum strain 3D7 = test: Plasmodium falciparum growth inhibition assay (Picogreen DNA content, three-day incubation); type: cell-based; conditions: for S.I. + pyruvate (Supplemental Table 4): MetHb EC50 / parasite EC50, with pyruvate; for S.I. - pyruvate (Supplemental Table 4): MetHb EC50 / parasite EC50, without pyruvate; for S.I. Fold Change (Supplemental Table 4): change in S.I. with versus without pyruvate
Experimental: (§2) Banked blood (Saint Louis Children’s Hospital) and fresh blood [healthy donors] was washed and stored at 50% hematocrit at 4°C up to 1 month past the clinical expiration date and collection date, respectively. Parasite strains provided by the Malaria Research and Reference Reagent Resource Center (MR4) as follows: 3D7 (MRA-102); K1 (MRA-159); D10 (MRA-201); and IPC-5202 (MRA-1240). Unless indicated, erythrocytes were cultured as previously described at 2% hematocrit in complete media (incomplete media supplemented with 27mM sodium bicarbonate, 11mM glucose, 5mM HEPES, 1mM sodium pyruvate, 0.37mM hypoxanthine, 0.01mM thymidine, 10µg/mL gentamicin, and 0.5% Albumax I (Thermo-Fisher) under 5% O2/5% CO2/90% N2 atmosphere at 37°C ([Guggisberg et al., 2014]).
Asynchronous cultures diluted to 1% parasitemia in 100μL wells were subjected to drug dilutions, solvent controls, and untreated uninfected erythrocyte controls in technical duplicates. Following a three-day incubation, DNA content was quantified using Picogreen (Life Technologies), as previously described ([Corbett et al., 2004]). Half-maximal effective concentrations (EC50) were determined from nonlinear regression of three biological replicates (GraphPad Prism).

human erythrocytes = test: Detection and quantification of MetHb formation in cultured erythrocytes; type: cell-based; conditions: MetHb formation, 500 = highest concentration tested
Experimental: as §2
MetHb was detected by measuring absorbance in the 630-640nm range, which is specific from other hemoglobin subforms (oxyhemoglobin, deoxyhemoglobin, and carboxyhemoglobin). Supernatants were removed and erythrocyte pellets were fully lysed and diluted, as described above. The absorption peak for oxyhemoglobin (575nm) and MetHb (630nm) were measured and the EC50 of MetHb formation was determined using non-linear regression analysis (GraphPad Prism).

P. falciparum = test system: P. falciparum; design: method as in Vennerstrom et al., 1999; Phillips et al., 2015; conditions: ref Vennerstrom et al., 1999; Phillips et al., 2015; read-out: EC50, in vitro potency of other antimalarial compounds; cited from earlier work
[1] = test system: P. falciparum K1 (chloroquine and sulfadoxine-pyrimethamine resistant); test: Plasmodium falciparum growth inhibition assay, drug-resistant line K1; type: cell-based; conditions: K1, chloroquine and sulfadoxine-pyrimethamine resistant, means ± s.e.m, read-out: EC50 (nM), P. falciparum K1
Experimental: (§3) Banked blood (Saint Louis Children’s Hospital) and fresh blood [healthy donors] was washed and stored at 50% hematocrit at 4°C up to 1 month past the clinical expiration date and collection date, respectively. Parasite strains provided by the Malaria Research and Reference Reagent Resource Center (MR4) as follows: 3D7 (MRA-102); K1 (MRA-159); D10 (MRA-201); and IPC-5202 (MRA-1240). […]
(§4) Asynchronous cultures diluted to 1% parasitemia in 100μL wells were subjected to drug dilutions, solvent controls, and untreated uninfected erythrocyte controls in technical duplicates. Following a three-day incubation, DNA content was quantified using Picogreen (Life Technologies), as previously described ([Corbett et al., 2004]). Half-maximal effective concentrations (EC50) were determined from nonlinear regression of three biological replicates (GraphPad Prism). […]
(§5) Supplemental Table 5. […] Half-maximal inhibitor concentrations (EC50s) were determined for drug resistant malaria parasites and compared to the sensitive 3D7 strain. The respective EC50s are calculated from each of the independent biological replicates using a non-linear regression of the log of the inhibitor concentration with data from each technical replicate normalized to maximal and minimal growth using the software package GraphPad Prism. […]
(§6) means ± s.e.m calculated from three biological replicates.

[2] = test system: P. falciparum D10 (mefloquine resistant); test: Plasmodium falciparum growth inhibition assay, drug-resistant line D10; type: cell-based; conditions: D10, mefloquine resistant, means ± s.e.m, read-out: EC50 (nM), P. falciparum D10
Experimental: as §3, §4, §5, §6

[3] = test system: P. falciparum IPC-5202 (chloroquine and artemisinin resistant); test: Plasmodium falciparum growth inhibition assay, drug-resistant line IPC-5202; type: cell-based; conditions: chloroquine and artemisinin resistant, means ± s.e.m, read-out: EC50 (nM), P. falciparum IPC-5202
Experimental: as §3, §4, §5, §6

[4] = test system: luciferase-expressing P. berghei ANKA parasites; test: In vivo efficacy against blood stage parasite burden (luciferase imaging); design: species or system Swiss-Webster mice; conditions: i.p. daily for five days; 30mg/kg POM-HEX, 5mg/kg POM-SF
Experimental: as §1

[5] = P. falciparum growth, with pyruvate, read-out: Parasite EC50 + pyruvate (Supplemental Table 4)
[6] = P. falciparum growth, without pyruvate, 500 = highest concentration tested, read-out: Parasite EC50 - pyruvate (Supplemental Table 4)
[7] = with pyruvate, read-out: MetHb EC50 + pyruvate (Supplemental Table 4)
[8] = without pyruvate, read-out: MetHb EC50 - pyruvate (Supplemental Table 4)

## O=CC[C@@H](O)[C@H](O)[C@H](O)CO [Compound 2-DG, 2-deoxyglucose, reference compound]
P. berghei ANKA; POM-HEX 30 mg/kg
  effect on clinical score, overall survival, cerebral malaria (in words): did not improve
P. berghei ANKA; d4, blood smear Giemsa, treated from day 2, HEX 100 mg/kg, control 7.8±3.3%
  parasitemia: 13.3±3.9%

## CC(C)OC(=O)OCOP(=O)(OCOC(=O)OC(C)C)C1CCCN(O)C1=O (centres unmarked) [Compound J52]
P. falciparum strain 3D7
  S.I. + pyruvate (Supplemental Table 4): 0.3
  S.I. - pyruvate (Supplemental Table 4): 0.3
  S.I. Fold Change (Supplemental Table 4): 1.2
P. falciparum strain 3D7; [5]
  EC50: 1600 ± 4000 nM
P. falciparum strain 3D7; [6]
  EC50: 2900 ± 400 nM
Human erythrocytes; [7]
  EC50: 0.49 ± 0.02 µM
Human erythrocytes; [8]
  EC50: 0.77 ± 0.04 µM

## Cc1cc(Nc2ccc(S(F)(F)(F)(F)F)cc2)n2nc(C(C)(F)F)nc2n1 [DSM265]
P. falciparum
  EC50: 0.053 µM

## O=C1C(P(=O)(O)O)CCN1O (centres unmarked) [DeoxySF-2312]
P. falciparum strain 3D7
  S.I. + pyruvate (Supplemental Table 4): 16.7
  S.I. - pyruvate (Supplemental Table 4): 6.3
  S.I. Fold Change (Supplemental Table 4): 2.7
P. falciparum strain 3D7; [5]
  EC50: 30000 ± 9700 nM
P. falciparum strain 3D7; [6]
  EC50: 80000 ± 2000 nM
P. falciparum strain 3D7; parasite growth versus MetHb formation
  selectivity for antiparasitic activity over erythrocyte toxicity (in words): notably selective
Human erythrocytes; [7]
  EC50: > 500 µM
Human erythrocytes; [8]
  EC50: > 500 µM

## CC1(P(=O)(O)O)CC(O)N(O)C1=O (centres unmarked) [MethylSF-2312]
P. falciparum strain 3D7
  S.I. + pyruvate (Supplemental Table 4): 19.2
  S.I. - pyruvate (Supplemental Table 4): 3.8
  S.I. Fold Change (Supplemental Table 4): 5.1
P. falciparum strain 3D7; [5]
  EC50: 26000 ± 2900 nM
P. falciparum strain 3D7; [6]
  EC50: 130000 ± 3500 nM
Human erythrocytes; [7]
  EC50: > 500 µM
Human erythrocytes; [8]
  EC50: > 500 µM

## O=C1C(P2(=O)NCCCO2)CCCN1O (centres unmarked) [PKM J45]
P. falciparum strain 3D7
  S.I. + pyruvate (Supplemental Table 4): 5.3
  S.I. - pyruvate (Supplemental Table 4): 14.3
  S.I. Fold Change (Supplemental Table 4): 0.4
P. falciparum strain 3D7; [5]
  EC50: 94000 ± 4700 nM
P. falciparum strain 3D7; [6]
  EC50: 35000 ± 3100 nM
Human erythrocytes; [7]
  EC50: > 500 µM
Human erythrocytes; [8]
  EC50: > 500 µM

## CC(C)(C)C(=O)OCOP(=O)(OCOC(=O)C(C)(C)C)C1CC(O)N(O)C1=O (centres unmarked) [POM-SF]
P. falciparum strain 3D7
  S.I. + pyruvate (Supplemental Table 4): 1.9
  S.I. - pyruvate (Supplemental Table 4): 0.1
  S.I. Fold Change (Supplemental Table 4): 13.6
P. falciparum strain 3D7; Plasmodium falciparum, 3D7, 72 h, P. falciparum growth, presence of 1mM pyruvate, mean ± s.e.m., read-out: Parasite EC50 + pyruvate
  EC50: 250 ± 10 nM
P. falciparum strain 3D7; Plasmodium falciparum, 3D7, P. falciparum growth, absence of 1mM pyruvate, mean ± s.e.m., 500 = highest concentration tested, EC50 not resolved, read-out: Parasite EC50 - pyruvate
  EC50: 710 ± 40 nM
P. falciparum strain 3D7; Plasmodium falciparum, 3D7, means ± s.e.m, three biological replicates, read-out: EC50 (nM), P. falciparum 3D7 (pan-sensitive)
  EC50: 185 ± 18 nM
P. falciparum strain 3D7; change in T.I. with versus without 1mM pyruvate
  T.I. Fold change: 13.6
P. falciparum strain 3D7; therapeutic index = [EC50 for MetHb formation]/[EC50 for parasite growth inhibition], with 1mM pyruvate
  T.I. + pyruvate: 1.9
P. falciparum strain 3D7; therapeutic index = [EC50 for MetHb formation]/[EC50 for parasite growth inhibition], without pyruvate
  T.I. - pyruvate: 0.1
[1]
  EC50: 361 ± 34 nM
[2]
  EC50: 437 ± 83 nM
[3]
  EC50: 321 ± 11 nM
Human erythrocytes; Homo sapiens, Erythrocyte, absence of 1mM pyruvate, mean ± s.e.m., EC50 not resolved, read-out: MetHb EC50 - pyruvate
  EC50: 0.1 ± 0.002 µM
Human erythrocytes; Homo sapiens, Erythrocyte, presence of 1mM pyruvate, mean ± s.e.m., EC50 not resolved, read-out: MetHb EC50 + pyruvate
  EC50: 0.48 ± 0.01 µM
[4]
  effect on parasite burden (in words): does not forestall a lethal parasite burden

## CC(C)OC(=O)C(C)NP(=O)(NC(C)C(=O)OC(C)C)C1CCCN(O)C1=O (centres unmarked) [SDR4]
P. falciparum strain 3D7
  S.I. + pyruvate (Supplemental Table 4): 6.8
  S.I. - pyruvate (Supplemental Table 4): 15.6
  S.I. Fold Change (Supplemental Table 4): 0.4
P. falciparum strain 3D7; [5]
  EC50: 73000 ± 8700 nM
P. falciparum strain 3D7; [6]
  EC50: 32000 ± 2400 nM
Human erythrocytes; [7]
  EC50: > 500 µM
Human erythrocytes; [8]
  EC50: > 500 µM

## CC(C)OC(=O)C(C)NP(=O)(Oc1ccccc1)C1CCCN(O)C1=O (centres unmarked) [SDR6]
P. falciparum strain 3D7
  S.I. + pyruvate (Supplemental Table 4): 8.3
  S.I. - pyruvate (Supplemental Table 4): 10.4
  S.I. Fold Change (Supplemental Table 4): 0.8
P. falciparum strain 3D7; [5]
  EC50: 60000 ± 13000 nM
P. falciparum strain 3D7; [6]
  EC50: 48000 ± 2800 nM
Human erythrocytes; [7]
  EC50: > 500 µM
Human erythrocytes; [8]
  EC50: > 500 µM

## CC(=O)ON1CCCC(P(=O)(OCOC(=O)C(C)(C)C)OCOC(=O)C(C)(C)C)C1=O (centres unmarked) [SDR23]
P. falciparum strain 3D7
  S.I. + pyruvate (Supplemental Table 4): 1.6
  S.I. - pyruvate (Supplemental Table 4): 0.6
  S.I. Fold Change (Supplemental Table 4): 2.5
P. falciparum strain 3D7; [5]
  EC50: 1600 ± 110 nM
P. falciparum strain 3D7; [6]
  EC50: 2100 ± 250 nM
Human erythrocytes; [7]
  EC50: 2.5 ± 0.34 µM
Human erythrocytes; [8]
  EC50: 1.3 ± 0.07 µM

## O=C1C(P(=O)(O)O)CC(O)N1O (centres unmarked) [SF-2312, reference compound]
P. falciparum strain 3D7
  S.I. + pyruvate (Supplemental Table 4): 18.5
  S.I. - pyruvate (Supplemental Table 4): 2.8
  S.I. Fold Change (Supplemental Table 4): 6.6
P. falciparum strain 3D7; [5]
  EC50: 27000 ± 2000 nM
P. falciparum strain 3D7; [6]
  EC50: 180000 ± 9300 nM
P. falciparum strain 3D7; asexual P. falciparum, phosphonates, read-out: half maximal effective concentrations (EC50s), parasite growth
  EC50: > 15000 nM
Human erythrocytes; [7]
  EC50: > 500 µM
Human erythrocytes; [8]
  EC50: > 500 µM

## COc1cc(C)c2c(Oc3cccc(C(F)(F)F)c3)c(OC)cc(NC(C)CCCN)c2n1 (centres unmarked) [tafenoquine]
P. falciparum
  EC50: 0.436 µM
